One compound from patent US10752647B2, “N-phosphonoxymethyl prodrugs of hydroxyalkyl thiadiazole derivatives” (DAIICHI SANKYO COMPANY, LIMITED, priority 2017, dated 2020) can be followed below.

What all share (type): in vivo
The nature of series [1]: Conversion efficiency / PK profile after IV dose in monkeys. The note with it: Monkey, plasma, parent compound IV 1 mg/kg; read-out: Parent compound AUCinf. As for the experimental part:
(§1) Method of Testing Conversion Efficiency Determination of conversion efficiency of Compound No. 1 and Compound No. 2 was conducted in rodents (mice and rats) and non-rodents (monkeys and dogs). Animals were divided in two groups with two animals in each group. One group received an intravenous (IV) dose of prodrug and the other group received an IV dose of parent compound. The dose of prodrug was taken as molar equivalent dose of parent compound. Serial blood sampling was carried out at 0.083, 0.33, 1, 2, 4, 8 and 24 h post IV dose from both the animal groups. Blood samples were centrifuged to harvest plasma. Plasma samples were stored at −80° C. until analysis. Plasma samples of prodrug administered animals were simultaneously analyzed for both analytes (prodrug and parent compound) using LC-MS/MS. Area under the curve (AUC) of plasma concentrations versus time profiles were calculated in WinNonlin software and percentage conversion efficiency was determined using the formula: Percentage conversion efficiency=(AUCiv of parent compound (from prodrug administered samples)×100/(AUCiv of parent compound (from parent compound administered samples). PK profile of Compounds No. 1 and No. 2 in rats, dogs and monkeys are depicted in Table 5 and 6, respectively (also shown in FIGS. 1 and 2).

Series [2] in a line: Conversion efficiency / PK profile after IV dose in dogs. The conditions noted are these: Dog, plasma, parent compound IV 1 mg/kg; read-out: Parent compound AUCinf. How it is done: as §1
Series [3] can be described thus: Conversion efficiency / PK profile after IV dose in rats (Compounds No. 1 and No. 2). The conditions noted are these: Rat, plasma, parent compound IV 12.5 mg/kg; read-out: Parent compound AUCinf. How it is done:
as §1

SMILES strings stand for the structures.

For the compound `CCc1[nH]c(C(=O)N[C@@H]2CCN(c3nnc(C(C)(C)O)s3)C[C@@H]2OC)nc1Cl` [Parent compound of Compound No. 1, 4-chloro-5-ethyl-N-{(3S,4R)-1-[5-(1-hydroxy-1-methylethyl)-1,3,4-thiadiazol-2-yl]-3-methoxypiperidin-4-yl}-1H-imidazole-2-carboxamide], the values for the AUC(0-inf) in series [1], in series [2] and in series [3] were 6250 ng·h/mL, 29400 ng·h/mL and 17700 ng·h/mL, respectively.
